Measured values: patent publication US20200281873A1, “Adamantane or Bicyclic Monoterpenoid Derivatives for Use in the Treatment of Leishmaniasis” (Commissariat a l'Energie Atomique et aux Energies …, priority 2017, published 2020)

Tests used:
[1] = test system: Leishmania infantum axenic amastigotes; assay: Evaluation on Leishmania donovani infantum axenic amastigotes (SYBR Green I); format: cell-based; conditions: Leishmania infantum; Table II; 3 different experiments, SYBR Green I method; read-out: IC50 axenic
Method: Protocol for Evaluation on Leishmania donovani infantum Axenic Amastigotes
Amastigote forms of the parasite were suspended to yield 10^7 parasitic cells mL^−1. The maximum final compound concentration used was 100 μM. Triplicates were used for each concentration. Cultures were incubated at 37° C. for 72 h in the dark and under a 5% CO2 atmosphere, then the viability of the amastigotes was assessed using the SYBR® Green I (Invitrogen, France) incorporation method. Parasite growth was determined by using SYBR® Green I, a dye with marked fluorescence enhancement upon contact with parasite DNA. Parasites were lysed and quantified by Direct PCR-Cell Genotyping without DNA isolation protocol (Euromedex, France). 10 μL of lysed parasite solution from each well was added to 40 μL of PCR-Cell reagent containing the SYBR® green I in a qPCR plate of 96 wells, and the contents were mixed. Fluorescence was measured with Mastercycler® ep realplex (Eppendorf, France). Measured fluorescence was compared to that from the range obtained with different parasite densities. The antileishmanial activity was expressed as IC50 in μM (concentration of drug inhibiting 50% of the parasite growth, comparatively to the controls treated with the excipient only).

[2] = In vivo toxicity evaluation by oral route in mice (serum biochemical parameters); parameters: species or system Balb/C female mice
Method: Biochemical parameters relative to VP343 and VP370 toxicity in Balb/C female mice (18-20 g) after a single treatment by oral route at 100 mg/kg under a 0.1 mL volume (=5 mL/kg). Serum were collected one week after the treatment. Excipient: Methylcellulose 1%+Tween 0.1%.
Dosages were performed with a Cobas 800 (Roche/Hitachi) apparatus.

[3] = Incubation of VP343 with human hepatic microsomes (LC-MS); format: in vitro ADME; conditions: t = 45 min
Method: The metabolites' identification of VP343 was performed after incubation of the compound with hepatic microsomal preparations from mouse, dog and human origin. The assay was performed by mixing VP343 at 5; 4; 2 or 1 μM with CD1 mouse hepatic microsomes (reference MIC255030 Biopredic) at 0.5 mg/mL of protein, or Beagle dog hepatic microsomes (reference MIC257013 Biopredic) at 1 mg/mL of protein, or human hepatic microsomes (reference MIC159882 Biopredic) at 1 mg/mL of protein, together with 1 mM NADPH (reference N1630 Sigma Aldrich), a phase I reaction's cofactor, in a 0.1 M phosphate buffer pH 7.4. Samples were then incubated in a Thermomixer® (Eppendorf) at 37° C. and 300 rotations per minute. After 45 minutes of incubation, the reaction was stopped with acetonitrile (0.5 volume of the experimental incubation volume). The samples' supernatants were then separated from the microsomes by centrifugation at 20,000 g during 10 minutes (Sorvall ST 16, Thermo Fisher Scientific) before analysis by liquid chromatography coupled to mass spectrometry (LC-MS).
The analysis was performed in two steps: first, on a positive electrospray ionisation source using a Waters Acquity I class UPLC (Ultra Performance Liquid Chromatography) system coupled to a Waters triple quadrupole mass spectrometer (Xevo TQMS) and then on an orbitrap source using a Thermo Fisher UHPLC (Ultra High Performance Liquid Chromatography) system (Ultimate 3000) coupled to a Thermo Fisher orbitrap mass spectrometer (Q Exactive) to confirm the structures of the identified metabolites. VP343 and his metabolites were separated by the UPLC system with a six minutes gradient of acetonitrile containing 0.1% of formic acid in a BEH C18 column (1.7 μm, 2.1×50 mm, Waters) with a mobile phase flow rate of 0.6 mL/min.
The metabolization of VP343 was studied by incubating the compound with mouse, dog, and human hepatic microsomes. The concentration of VP343 in the microsomal preparations was measured at t=0 and at t=45 min by liquid chromatography-tandem mass spectrometry (LC-MS). […]

[4] = single oral treatment 100 mg/kg, serum one week after treatment

With COc1ccc(Br)cc1CN(C)C12CC3CC(CC(C3)C1)C2 [VP343] the IC50 [1] was 9.29 µM, the “Serum AST ± SD” value [2, 4] was 391 ± 72 U/L and the “Serum AST ± SD (second AST column)” value [2, 4] was 169 ± 34 U/L. The Serum creatinin [2, 4] was under 18 µM, the “Toxicity after single oral treatment (in words)” value ([2]; single treatment by oral route at 100 mg/kg) was “did not show toxicity” and the VP343 residual concentration ([3]; initial concentration 1 μM) was 0.41 µM. It also gave a VP343 residual concentration ([3]; initial concentration 2 μM) of 1.08 µM and a VP343 residual concentration ([3]; initial concentration 4 μM) of 1.62 µM.
